From PubChem BioAssay (NCI)
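Dose response: 5 concentrations. Exposure: 48 h. Format: 96-well plates. Endpoint: linear interpolation; highest concentration if not reached. GI50 marks 50% less growth. TGI: concentration producing complete growth inhibition.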

Legend:
Assay in all cases: growth of human tumour cells (NCI), 48 h
[1] = system: KM12 colon
[2] = system: MDA-MB-231 breast
[3] = system: OVCAR-4 ovarian
[4] = system: COLO 205 colon
[5] = system: RXF 393 renal
[6] = system: SF-295 CNS
[7] = system: SK-OV-3 ovarian
[8] = system: K-562 leukemia
[9] = system: PC-3 prostate
[10] = system: SK-MEL-5 melanoma
[11] = system: NCI-H226 lung
[12] = system: HL-60(TB) leukemia
[13] = system: HCT-116 colon
[14] = system: MALME-3M melanoma
[15] = system: TK-10 renal
[16] = system: SW-620 colon
[17] = system: SK-MEL-28 melanoma
[18] = system: UACC-62 melanoma
[19] = system: HOP-62 NSCLC
[20] = system: UO-31 renal
[21] = system: OVCAR-3 ovarian
[22] = system: A498 renal
[23] = system: HS 578T breast
[24] = system: SNB-75 CNS
[25] = system: MDA-MB-435
[26] = system: RPMI-8226 leukemia
[27] = system: CCRF-CEM leukemia
[28] = system: SF-539 CNS
[29] = system: SF-268 CNS
[30] = system: HCT-15 colon
[31] = system: ACHN renal
[32] = system: NCI-H522 lung
[33] = system: M14 melanoma
[34] = system: SNB-19 CNS
[35] = system: SR leukemia
[36] = system: 786-0 renal
[37] = system: IGROV1 ovarian
[38] = system: A549 NSCLC
[39] = system: OVCAR-8 ovarian
[40] = system: SK-MEL-2 melanoma
[41] = system: NCI-H23 lung
[42] = system: EKVX NSCLC
[43] = system: BT-549 breast
[44] = system: CAKI-1 renal
[45] = system: NCI/ADR-RES ovarian
[46] = system: MCF7 breast
[47] = system: HT29 colon
[48] = system: T-47D breast
[49] = system: SN12C renal
[50] = system: OVCAR-5 ovarian
[51] = system: UACC-257 melanoma
[52] = system: MOLT-4 leukemia
[53] = system: NCI-H460 lung
[54] = system: DU-145 prostate
[55] = system: LOX IMVI melanoma
[56] = system: U251 CNS
[57] = system: HOP-92 NSCLC

`CCCCC#Cc1c(I)n(C2OC(CO[Si](C)(C)C(C)(C)C)C3OC(C)(C)OC32)c(=O)n(C(=O)c2ccccc2)c1=O` (centres undefined) showed a GI50 [1] of 1.5 µM, a TGI [1] of 3.05 µM and a GI50 [2] of 17.7 µM. It also gave a TGI [2] of 37.7 µM, a GI50 [3] of 14 µM and a TGI [3] of 27.2 µM. For the same compound, the GI50 [4] was 1.59 µM, the TGI [4] was 3.14 µM and the GI50 [5] was 11 µM. The TGI [5] was 23.9 µM, the GI50 [6] was 12.7 µM and the TGI [6] was 27.3 µM. The GI50 [7] was 14.8 µM, the TGI [7] was 27.9 µM and the GI50 [8] was 15 µM. The TGI [8] was 36.2 µM, the GI50 [9] was 10.3 µM and the TGI [9] was 22.9 µM. It also gave a GI50 [10] of 14.2 µM, a TGI [10] of 27.2 µM and a GI50 [11] of 17.6 µM. The TGI [11] was 37.6 µM, the GI50 [12] was 10.1 µM and the TGI [12] was 28.6 µM. For the same compound, the GI50 [13] was 1.36 µM, the TGI [13] was 2.74 µM and the GI50 [14] was 2.5 µM. For the same compound, the TGI [14] was 4.91 µM, the GI50 [15] was 1.78 µM and the TGI [15] was 3.19 µM. For the same compound, the GI50 [16] was 2.33 µM, the TGI [16] was 6.03 µM and the GI50 [17] was 6.94 µM. For the same compound, the TGI [17] was 22.5 µM, the GI50 [18] was 17.7 µM and the TGI [18] was 32.2 µM. The GI50 [19] was 10.7 µM, the TGI [19] was 23 µM and the GI50 [20] was 1.97 µM. For the same compound, the TGI [20] was 7.51 µM, the GI50 [21] was 1.47 µM and the TGI [21] was 2.82 µM. For the same compound, the GI50 [22] was 30.9 µM, the TGI [22] was 98.3 µM and the GI50 [23] was 7.17 µM. The TGI [23] was 43.6 µM, the GI50 [24] was 14.1 µM and the TGI [24] was 27.5 µM. The GI50 [25] was 1.77 µM, the TGI [25] was 3.87 µM and the GI50 [26] was 3.64 µM. For the same compound, the TGI [26] was 17.4 µM, the GI50 [27] was 13.4 µM and the TGI [27] was 33.4 µM. For the same compound, the GI50 [28] was 3.54 µM, the TGI [28] was 12.8 µM and the GI50 [29] was 2.06 µM. For the same compound, the TGI [29] was 4.85 µM, the GI50 [30] was 1.63 µM and the TGI [30] was > 100 µM. For the same compound, the GI50 [31] was 3 µM, the TGI [31] was > 100 µM and the GI50 [32] was 1.84 µM. It also gave a TGI [32] of 3.93 µM, a GI50 [33] of 1.6 µM and a TGI [33] of 3.3 µM. The GI50 [34] was 14.1 µM, the TGI [34] was 28.4 µM and the GI50 [35] was 1.69 µM. It also gave a TGI [35] of 9.35 µM, a GI50 [36] of 3.25 µM and a TGI [36] of 14.5 µM. The GI50 [37] was 3.96 µM, the TGI [37] was 13.4 µM and the GI50 [38] was > 100 µM. For the same compound, the TGI [38] was > 100 µM, the GI50 [39] was 5.61 µM and the TGI [39] was 18.6 µM. It also gave a GI50 [40] of 2.09 µM, a TGI [40] of 4.75 µM and a GI50 [41] of 9.44 µM. It also gave a TGI [41] of 27.3 µM, a GI50 [42] of 18.5 µM and a TGI [42] of 38.9 µM. For the same compound, the GI50 [43] was 8.98 µM, the TGI [43] was 20.4 µM and the GI50 [44] was 3.67 µM. It also gave a TGI [44] of 18.4 µM, a GI50 [45] of 18.5 µM and a TGI [45] of 49.3 µM. It also gave a GI50 [46] of 2.14 µM, a TGI [46] of 5.59 µM and a GI50 [47] of 28.4 µM. The TGI [47] was > 100 µM, the GI50 [48] was 4.14 µM and the TGI [48] was 19.7 µM. For the same compound, the GI50 [49] was 19.3 µM, the TGI [49] was 45.4 µM and the GI50 [50] was 17.1 µM. It also gave a TGI [50] of 31.7 µM, a GI50 [51] of 16.4 µM and a TGI [51] of 30.7 µM. The GI50 [52] was 5.79 µM, the TGI [52] was 23.6 µM and the GI50 [53] was 10.9 µM. The TGI [53] was 27.4 µM, the GI50 [54] was 2.25 µM and the TGI [54] was 4.68 µM. It also gave a GI50 [55] of 5.54 µM, a TGI [55] of 38.5 µM and a GI50 [56] of 3.25 µM. The TGI [56] was > 100 µM, the GI50 [57] was 0.885 µM and the TGI [57] was 13.5 µM.
